Data on 33 molecules can be found in patent publication US8541588B2, “Sulfonamide derivatives” (Pfizer Limited, priority 2009, dated 2013).

pIC50: −log10 of the molar value. A value given as a limit tells only on which side of the number the result lay.

In the assay the target is T1, Nav1.7 (or SCN9A) channel; HEK cells stably transfected with hSCN9A (Homo sapiens, UniProt Q15858).
T1 construct: expressed in transfected cells
T1 sequence (Q15858 whole entry): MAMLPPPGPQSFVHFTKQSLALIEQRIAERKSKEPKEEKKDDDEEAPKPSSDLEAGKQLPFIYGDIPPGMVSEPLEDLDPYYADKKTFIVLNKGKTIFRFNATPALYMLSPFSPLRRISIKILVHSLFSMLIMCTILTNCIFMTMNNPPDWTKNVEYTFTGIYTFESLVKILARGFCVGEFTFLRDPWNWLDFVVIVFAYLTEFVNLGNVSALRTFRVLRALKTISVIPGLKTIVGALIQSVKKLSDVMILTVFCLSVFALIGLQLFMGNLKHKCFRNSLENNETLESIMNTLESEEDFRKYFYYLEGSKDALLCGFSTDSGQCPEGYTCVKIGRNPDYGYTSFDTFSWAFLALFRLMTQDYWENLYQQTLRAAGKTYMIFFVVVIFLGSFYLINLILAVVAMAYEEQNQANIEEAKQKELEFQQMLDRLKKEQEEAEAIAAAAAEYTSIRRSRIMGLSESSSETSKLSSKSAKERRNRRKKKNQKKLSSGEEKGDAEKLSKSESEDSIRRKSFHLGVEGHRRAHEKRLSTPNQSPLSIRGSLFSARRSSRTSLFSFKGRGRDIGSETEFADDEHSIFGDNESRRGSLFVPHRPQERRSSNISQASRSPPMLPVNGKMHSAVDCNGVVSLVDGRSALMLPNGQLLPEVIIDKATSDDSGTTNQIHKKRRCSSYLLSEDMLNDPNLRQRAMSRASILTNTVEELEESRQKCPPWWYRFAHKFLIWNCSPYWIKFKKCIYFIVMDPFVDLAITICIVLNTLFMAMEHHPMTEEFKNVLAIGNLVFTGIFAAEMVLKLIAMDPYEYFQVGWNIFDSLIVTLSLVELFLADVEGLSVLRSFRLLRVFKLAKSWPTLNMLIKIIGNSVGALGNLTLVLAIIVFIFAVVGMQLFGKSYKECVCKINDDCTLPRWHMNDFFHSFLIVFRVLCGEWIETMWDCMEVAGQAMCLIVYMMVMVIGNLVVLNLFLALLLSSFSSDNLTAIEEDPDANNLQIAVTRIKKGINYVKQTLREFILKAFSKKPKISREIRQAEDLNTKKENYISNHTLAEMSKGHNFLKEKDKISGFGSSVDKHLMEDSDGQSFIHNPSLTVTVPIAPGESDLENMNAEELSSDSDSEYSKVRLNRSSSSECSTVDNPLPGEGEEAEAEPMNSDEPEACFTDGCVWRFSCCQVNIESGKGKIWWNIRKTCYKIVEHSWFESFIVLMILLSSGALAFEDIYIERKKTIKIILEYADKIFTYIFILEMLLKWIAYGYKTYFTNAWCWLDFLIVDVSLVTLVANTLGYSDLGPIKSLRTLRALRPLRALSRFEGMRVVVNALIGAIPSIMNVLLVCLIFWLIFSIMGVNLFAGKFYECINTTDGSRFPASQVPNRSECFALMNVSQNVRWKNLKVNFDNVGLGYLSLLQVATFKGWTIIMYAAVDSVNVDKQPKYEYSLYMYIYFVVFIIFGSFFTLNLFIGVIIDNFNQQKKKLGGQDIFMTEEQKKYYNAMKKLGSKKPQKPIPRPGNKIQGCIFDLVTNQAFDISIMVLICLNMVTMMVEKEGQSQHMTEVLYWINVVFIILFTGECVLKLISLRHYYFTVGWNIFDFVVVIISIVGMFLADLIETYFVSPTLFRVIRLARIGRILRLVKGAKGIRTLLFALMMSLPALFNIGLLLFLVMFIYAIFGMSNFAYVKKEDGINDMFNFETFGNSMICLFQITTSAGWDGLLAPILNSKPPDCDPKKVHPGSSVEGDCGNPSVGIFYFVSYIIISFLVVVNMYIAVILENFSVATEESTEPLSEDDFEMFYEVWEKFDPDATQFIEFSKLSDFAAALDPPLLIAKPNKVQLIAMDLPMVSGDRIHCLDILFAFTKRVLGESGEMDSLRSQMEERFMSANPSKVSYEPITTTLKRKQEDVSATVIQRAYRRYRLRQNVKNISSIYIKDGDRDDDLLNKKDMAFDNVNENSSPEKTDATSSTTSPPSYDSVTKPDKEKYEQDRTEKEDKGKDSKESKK
The assay can be described thus: Nav1.7 block, PatchXpress 7000 automated whole-cell voltage clamp, estimated IC50 (EIC50). Particulars: estimated IC50; hSCN9A HEK cells, PatchXpress platform; Examples 283-814. The class given is cell-based.
In general, pIC50 refers to the negative decadic logarithm of the IC50, by convention in mol/L. Regarding `Cc1[nH]ncc1-c1cc(Cl)ccc1Oc1ccc(S(=O)(=O)Nc2nccs2)cc1C#N` [Example 546, 4-[4-chloro-2-(5-methyl-1H-pyrazol-4-yl)phenoxy]-3-cyano-N-1,3-thiazol-2-ylbenzenesulfonamide], the pIC50 was 7.70. Same read-out and setting: as for `CCn1nc(C(F)(F)F)cc1-c1cccc(Oc2ccc(S(=O)(=O)Nc3nccs3)cc2C#N)c1` [Example 547, 3-cyano-4-{3-[1-ethyl-3-(trifluoromethyl)-1H-pyrazol-5-yl]phenoxy}-N-1,3-thiazol-2-ylbenzenesulfonamide], the figure is 6.92. On to `CCn1nc(C(C)(C)C#N)cc1-c1ccc(Oc2ccc(S(=O)(=O)Nc3nccs3)cc2C#N)cc1` [Example 548, 3-cyano-4-{4-[3-(1-cyano-1-methylethyl)-1-ethyl-1H-pyrazol-5-yl]phenoxy}-N-1,3-thiazol-2-ylbenzenesulfonamide], for which the pIC50 is 6.39. As to `N#Cc1cc(S(=O)(=O)Nc2nccs2)ccc1Oc1cccc(-c2cc(C(F)(F)F)nn2CCO)c1` [Example 549, 3-cyano-4-{3-[1-(2-hydroxyethyl)-3-(trifluoromethyl)-1H-pyrazol-5-yl]phenoxy}-N-1,3-thiazol-2-ylbenzenesulfonamide], the pIC50 was 6.80.

`CN(C)CCn1nc(C(F)(F)F)cc1-c1cccc(Oc2ccc(S(=O)(=O)Nc3nccs3)cc2C#N)c1` [Example 550, 3-cyano-4-(3-{1-[2-(dimethylamino)ethyl]-3-(trifluoromethyl)-1H-pyrazol-5-yl}phenoxy)-N-1,3-thiazol-2-ylbenzenesulfonamide]: the pIC50 is 6.70. The same measure, in the same setting: as for `N#Cc1cc(S(=O)(=O)Nc2nccs2)ccc1Oc1ccc(-c2cc(C(F)(F)F)nn2CCCF)cc1F` [Example 551, 3-cyano-4-{2-fluoro-4-[1-(3-fluoropropyl)-3-(trifluoromethyl)-1H-pyrazol-5-yl]phenoxy}-N-1,3-thiazol-2-ylbenzenesulfonamide], the figure is 7.15. The same measure, in the same setting: as for `Nc1cc(-c2cc(OC(F)(F)F)ccc2Oc2cc(F)c(S(=O)(=O)Nc3ncns3)cc2Cl)ccn1` [Example 553, 4-[2-(2-aminopyridin-4-yl)-4-(trifluoromethoxy)phenoxy]-5-chloro-2-fluoro-N-1,2,4-thiadiazol-5-ylbenzenesulfonamide], the figure is 8.77. The same measure, in the same setting: the value for `Nc1ccnc(-c2cc(Cl)ccc2Oc2cc(F)c(S(=O)(=O)Nc3ncns3)cc2Cl)c1` [Example 554, 4-[2-(4-aminopyridin-2-yl)-4-chlorophenoxy]-5-chloro-2-fluoro-N-1,2,4-thiadiazol-5-ylbenzenesulfonamide] was 6.92; that for `Nc1cccc(-c2cc(C(F)(F)F)ccc2Oc2cc(F)c(S(=O)(=O)Nc3ncns3)cc2F)n1` [Example 555, 4-[2-(6-aminopyridin-2-yl)-4-(trifluoromethyl)phenoxy]-2,5-difluoro-N-1,2,4-thiadiazol-5-ylbenzenesulfonamide] was 7.85; that for `Nc1cc(-c2cc(C(F)(F)F)ccc2Oc2cc(F)c(S(=O)(=O)Nc3ncns3)cc2F)ccn1` [Example 556, 4-[2-(2-aminopyridin-4-yl)-4-(trifluoromethyl)phenoxy]-2,5-difluoro-N-1,2,4-thiadiazol-5-ylbenzenesulfonamide] was 8.64. In the case of `Nc1cc(-c2cc(C(F)(F)F)ccc2Oc2cc(F)c(S(=O)(=O)Nc3ncns3)cc2Cl)ccn1` [Example 557, 4-[2-(2-aminopyridin-4-yl)-4-(trifluoromethyl)phenoxy]-5-chloro-2-fluoro-N-1,2,4-thiadiazol-5-ylbenzenesulfonamide], the pIC50 is 9.10. On the same count and under the same terms, the value for `N#Cc1cc(S(=O)(=O)Nc2nccs2)ccc1Oc1ccc(-c2cc(C(F)(F)F)nn2C2CNC2)cc1` [Example 558, 4-{4-[1-azetidin-3-yl-3-(trifluoromethyl)-1H-pyrazol-5-yl]phenoxy}-3-cyano-N-1,3-thiazol-2-ylbenzenesulfonamide] was 7.41; that for `N#Cc1cc(S(=O)(=O)Nc2ncc(Cl)s2)ccc1Oc1ccc(Cl)cc1-c1ccnn1C1CNC1` [Example 559, 4-[2-(1-azetidin-3-yl-1H-pyrazol-5-yl)-4-chlorophenoxy]-N-(5-chloro-1,3-thiazol-2-yl)-3-cyanobenzenesulfonamide] was 9.15.

As to `O=S(=O)(Nc1ccncn1)c1cc(Cl)c(Oc2ccc(Cl)cc2C2CCNCC2)cc1F` [Example 560, 5-chloro-4-(4-chloro-2-piperidin-4-ylphenoxy)-2-fluoro-N-pyrimidin-4-ylbenzenesulfonamide], the pIC50 is 7.11.

Regarding `O=S(=O)(Nc1ccc(F)cn1)c1cc(F)c(Oc2ccc(Cl)cc2C2CCNCC2)cc1F` [Example 561, 4-(4-chloro-2-piperidin-4-ylphenoxy)-2,5-difluoro-N-(5-fluoropyridin-2-yl)benzenesulfonamide], the pIC50 is 6.42. Consider `COCCn1nccc1-c1cc(Cl)ccc1Oc1ccc(S(=O)(=O)Nc2ncns2)cc1C#N` [Example 562, 4-{4-chloro-2-[1-(2-methoxyethyl)-1H-pyrazol-5-yl]phenoxy}-3-cyano-N-1,2,4-thiadiazol-5-ylbenzenesulfonamide], for which the pIC50 was 7.77. On the same count and under the same terms, the value for `COCCn1nccc1-c1cc(Cl)ccc1Oc1cc(F)c(S(=O)(=O)Nc2nncs2)cc1Cl` [Example 563, 5-chloro-4-{4-chloro-2-[1-(2-methoxyethyl)-1H-pyrazol-5-yl]phenoxy}-2-fluoro-N-1,3,4-thiadiazol-2-ylbenzenesulfonamide] was 6.89; that for `O=S(=O)(Nc1nncs1)c1cc(Cl)c(Oc2ccc(Cl)cc2-c2cn[nH]c2)cc1F` [Example 564, 5-chloro-4-[4-chloro-2-(1H-pyrazol-4-yl)phenoxy]-2-fluoro-N-1,3,4-thiadiazol-2-ylbenzenesulfonamide] was 8.04. The same measure, in the same setting: the value for `Cc1nn(C)c(C)c1Cc1ccc(Oc2ccc(S(=O)(=O)Nc3ccc(F)cn3)cc2C#N)cc1` [Example 565, 3-cyano-N-(5-fluoropyridin-2-yl)-4-{4-[(1,3,5-trimethyl-1H-pyrazol-4-yl)methyl]phenoxy}benzenesulfonamide] was 4.27.

Broadly, the IC50 is the midpoint of a concentration-inhibition curve. Regarding `N#Cc1cc(S(=O)(=O)Nc2ccc(F)cn2)ccc1Oc1ccc(CN2CCC2)c(F)c1` [Example 566, 4-[4-(azetidin-1-ylmethyl)-3-fluorophenoxy]-3-cyano-N-(5-fluoropyridin-2-yl)benzenesulfonamide], the IC50 was above 30000 nM. The same measure, in the same setting: the value for `CCc1nnc(C)n1-c1ccc(Oc2ccc(S(=O)(=O)Nc3ccc(F)cn3)cc2C#N)cc1` [Example 568, 3-cyano-4-[4-(3-ethyl-5-methyl-4H-1,2,4-triazol-4-yl)phenoxy]-N-(5-fluoropyridin-2-yl)benzenesulfonamide] was above 3000 nM; that for `N#Cc1cc(S(=O)(=O)Nc2ccc(F)cn2)ccc1Oc1ccc(-n2ccnc2)cc1` [Example 569, 3-cyano-N-(5-fluoropyridin-2-yl)-4-[4-(1H-imidazol-1-yl)phenoxy]benzenesulfonamide] was above 3000 nM. Regarding `CCNC(=O)c1ccc(-c2cccc(Oc3ccc(S(=O)(=O)Nc4ccc(F)cn4)cc3C#N)c2)cc1` [Example 570, 3′-(2-cyano-4-{[(5-fluoropyridin-2-yl)amino]sulfonyl}phenoxy)-N-ethylbiphenyl-4-carboxamide], the pIC50 was 5.07. With `Cc1cc(-c2ccccc2Oc2ccc(S(=O)(=O)Nc3ccc(F)cn3)cc2C#N)sn1` [Example 571, 3-cyano-N-(5-fluoropyridin-2-yl)-4-[2-(3-methylisothiazol-5-yl)phenoxy]benzenesulfonamide], the pIC50 was 5.00. Consider `Cc1nc(-c2ccccc2Oc2ccc(S(=O)(=O)Nc3ccc(F)cn3)cc2C#N)cs1` [Example 572, 3-cyano-N-(5-fluoropyridin-2-yl)-4-[2-(2-methyl-1,3-thiazol-4-yl)phenoxy]benzenesulfonamide], for which the IC50 was above 30000 nM. Turning to `CN1CCC(c2cccc(Oc3ccc(S(=O)(=O)Nc4ccc(F)cn4)cc3C#N)c2)CC1` [Example 573, 3-cyano-N-(5-fluoropyridin-2-yl)-4-[3-(1-methylpiperidin-4-yl)phenoxy]benzenesulfonamide], the negative-log IC50 (pIC50) is 5.14. For the molecule `Cc1nc(-c2cccc(Oc3ccc(S(=O)(=O)Nc4ccc(F)cn4)cc3C#N)c2)no1` [Example 574, 3-cyano-N-(5-fluoropyridin-2-yl)-4-[3-(5-methyl-1,2,4-oxadiazol-3-yl)phenoxy]benzenesulfonamide], the IC50 was above 3000 nM. Take `COc1cc(Oc2ccc(S(=O)(=O)Nc3ccc(F)cn3)cc2C#N)ccc1-n1cnc(C)c1` [Example 575, 3-cyano-N-(5-fluoropyridin-2-yl)-4-[3-methoxy-4-(4-methyl-1H-imidazol-1-yl)phenoxy]benzenesulfonamide]: the concentration for half-maximal inhibition (IC50) was above 30000 nM. In the case of `Cc1nnc(-c2ccc(Oc3ccc(S(=O)(=O)Nc4ccc(F)cn4)cc3C#N)cc2)o1` [Example 576, 3-cyano-N-(5-fluoropyridin-2-yl)-4-[4-(5-methyl-1,3,4-oxadiazol-2-yl)phenoxy]benzenesulfonamide], the IC50 is above 3000 nM. On to `Cc1cnsc1-c1ccccc1Oc1ccc(S(=O)(=O)Nc2ccc(F)cn2)cc1C#N` [Example 577, 3-cyano-N-(5-fluoropyridin-2-yl)-4-[2-(4-methylisothiazol-5-yl)phenoxy]benzenesulfonamide], for which the negative-log IC50 (pIC50) is 4.96.

Regarding `COc1cc(Oc2ccc(S(=O)(=O)Nc3ccc(F)cn3)cc2C#N)ccc1-n1ccnc1C` [Example 578, 3-cyano-N-(5-fluoropyridin-2-yl)-4-[3-methoxy-4-(2-methyl-1H-imidazol-1-yl)phenoxy]benzenesulfonamide], the pIC50 is 5.26. For the molecule `COc1cc(Oc2ccc(S(=O)(=O)Nc3ccc(F)cn3)cc2C#N)ccc1-n1cccn1` [Example 579, 3-cyano-N-(5-fluoropyridin-2-yl)-4-[3-methoxy-4-(1H-pyrazol-1-yl)phenoxy]benzenesulfonamide], the IC50 was above 3000 nM. `N#Cc1cc(S(=O)(=O)Nc2ccc(F)cn2)ccc1Oc1ccccc1-c1nnco1` [Example 580, 3-cyano-N-(5-fluoropyridin-2-yl)-4-[2-(1,3,4-oxadiazol-2-yl)phenoxy]benzenesulfonamide]: the pIC50 is 5.16.
